Assay results taken from PubChem BioAssay AID1963843 (Molecular Pharmacology Branch, DTP, NCI, 2024).

System: 616215-338-R-J1-PDC complex spheroid viability
Assay: Anticancer human tumor 616215-338-R-J1-PDC patient-derived colon adenocarcinoma cell line growth inhibition [POLQ]
Conditions: for IC50: curve of first compound; for viability, T/C: stronger effect = lower value; active means viability on the fitted dose curve at most 10% of control; inactive means the rest
In short: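 PDC + HUVEC + MSC complex spheroids; POLQ inhibitors ± partner drugs; top conc. at/near clinical Cmax, else 10 microM (SN-38 1 microM), half-log dilutions; 37 degrees C, 5% CO2.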

[1] = second compound 0.0316 µM, first compound 0.0316 µM
[2] = second compound 0.0316 µM, first compound 0.1 µM
[3] = second compound 0.0316 µM, first compound 0.316 µM
[4] = second compound 0.0316 µM, first compound 1 µM
[5] = second compound 0.0316 µM, first compound 3.16 µM
[6] = second compound 0.0316 µM, first compound 10 µM
[7] = second compound 0.1 µM, first compound 0.0316 µM
[8] = second compound 0.1 µM, first compound 0.1 µM
[9] = second compound 0.1 µM, first compound 0.316 µM
[10] = second compound 0.1 µM, first compound 1 µM
[11] = second compound 0.1 µM, first compound 3.16 µM
[12] = second compound 0.1 µM, first compound 10 µM
[13] = second compound 0.316 µM, first compound 0.0316 µM
[14] = second compound 0.316 µM, first compound 0.1 µM
[15] = second compound 0.316 µM, first compound 0.316 µM
[16] = second compound 0.316 µM, first compound 1 µM
[17] = second compound 0.316 µM, first compound 3.16 µM
[18] = second compound 0.316 µM, first compound 10 µM
[19] = second compound 1 µM, first compound 0.0316 µM
[20] = second compound 1 µM, first compound 0.1 µM
[21] = second compound 1 µM, first compound 0.316 µM
[22] = second compound 1 µM, first compound 1 µM
[23] = second compound 1 µM, first compound 3.16 µM
[24] = second compound 1 µM, first compound 10 µM
[25] = second compound 3.16 µM, first compound 0.0316 µM
[26] = second compound 3.16 µM, first compound 0.1 µM
[27] = second compound 3.16 µM, first compound 0.316 µM
[28] = second compound 3.16 µM, first compound 1 µM
[29] = second compound 3.16 µM, first compound 3.16 µM
[30] = second compound 3.16 µM, first compound 10 µM
[31] = second compound 10 µM, first compound 0.0316 µM
[32] = second compound 10 µM, first compound 0.1 µM
[33] = second compound 10 µM, first compound 0.316 µM
[34] = second compound 10 µM, first compound 1 µM
[35] = second compound 10 µM, first compound 3.16 µM
[36] = second compound 10 µM, first compound 10 µM
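Further: spheroids exposed to compounds for one week before readout.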
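Wherever viability, T/C is given: percent viability relative to DMSO vehicle wells taken as 100%.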

CC1COCCN1c1cc(C2(O)CC3CCC(C2)O3)c2cnn(-c3ccn[nH]3)c2n1 (stereo unspecified) + COC1C(OC(N)=O)C(O)C(Oc2ccc3c(O)c(NC(=O)c4ccc(O)c(CC=C(C)C)c4)c(=O)oc3c2C)OC1(C)C
1990 nM: IC50 (second compound 0.0316 µM)
960 nM: IC50 (second compound 10 µM)
2040 nM: IC50 (second compound 1 µM)
1290 nM: IC50 (second compound 3.16 µM)
inactive: viability, T/C [1] 109% | viability, T/C [2] 91.5% | viability, T/C [3] 71% | viability, T/C [4] 64.1% | viability, T/C [5] 39.5% | viability, T/C [6] 35.6% | viability, T/C [7] 102% | viability, T/C [8] 91.4% | viability, T/C [9] 72% | viability, T/C [10] 57.6% | viability, T/C [11] 46.7% | viability, T/C [12] 36.5% | viability, T/C [13] 106% | viability, T/C [14] 90.2% | viability, T/C [15] 69.4% | viability, T/C [16] 60.1% | viability, T/C [17] 42.7% | viability, T/C [18] 30.5% | viability, T/C [19] 105% | viability, T/C [20] 90.6% | viability, T/C [21] 74.3% | viability, T/C [22] 57.1% | viability, T/C [23] 47.8% | viability, T/C [24] 28% | viability, T/C [25] 99.4% | viability, T/C [26] 86.8% | viability, T/C [27] 64.5% | viability, T/C [28] 50.3% | viability, T/C [29] 46.2% | viability, T/C [30] 21.6% | viability, T/C [31] 100% | viability, T/C [32] 79.3% | viability, T/C [33] 57.4% | viability, T/C [34] 53.2% | viability, T/C [35] 40.5% | viability, T/C [36] 25.2%
1830 nM: IC50 (second compound 0.316 µM)
2050 nM: IC50 (second compound 0.1 µM)

CCc1cc2c(N3CCc4c(cc(Cn5ccnc5)cc4-c4cn(C)nc4C(F)(F)F)C3=O)cc(C)nc2c(OC)n1 + COC1C(OC(N)=O)C(O)C(Oc2ccc3c(O)c(NC(=O)c4ccc(O)c(CC=C(C)C)c4)c(=O)oc3c2C)OC1(C)C
8700 nM: IC50 (second compound 0.0316 µM)
9030 nM: IC50 (second compound 0.1 µM)
8550 nM: IC50 (second compound 1 µM)
6270 nM: IC50 (second compound 0.316 µM)
9280 nM: IC50 (second compound 10 µM)
inactive: viability, T/C [1] 101% | viability, T/C [2] 109% | viability, T/C [3] 109% | viability, T/C [4] 110% | viability, T/C [5] 60.5% | viability, T/C [6] 48.6% | viability, T/C [7] 106% | viability, T/C [8] 111% | viability, T/C [9] 99.5% | viability, T/C [10] 92.9% | viability, T/C [11] 64.6% | viability, T/C [12] 48.8% | viability, T/C [13] 106% | viability, T/C [14] 109% | viability, T/C [15] 99.7% | viability, T/C [16] 91% | viability, T/C [17] 59.8% | viability, T/C [18] 43.1% | viability, T/C [19] 113% | viability, T/C [20] 105% | viability, T/C [21] 104% | viability, T/C [22] 85.1% | viability, T/C [23] 57% | viability, T/C [24] 49.2% | viability, T/C [25] 113% | viability, T/C [26] 110% | viability, T/C [27] 102% | viability, T/C [28] 86.6% | viability, T/C [29] 76% | viability, T/C [30] 44.2% | viability, T/C [31] 115% | viability, T/C [32] 99.2% | viability, T/C [33] 95% | viability, T/C [34] 77.3% | viability, T/C [35] 53.8% | viability, T/C [36] 51.8%
8180 nM: IC50 (second compound 3.16 µM)

COc1cccc2c1C(=O)c1c(O)c3c(c(O)c1C2=O)CC(O)(C(=O)CO)CC3OC1CC(N)C(O)C(C)O1 (stereo unspecified) + COC1C(OC(N)=O)C(O)C(Oc2ccc3c(O)c(NC(=O)c4ccc(O)c(CC=C(C)C)c4)c(=O)oc3c2C)OC1(C)C
948 nM: IC50 (second compound 0.0316 µM)
762 nM: IC50 (second compound 0.1 µM)
964 nM: IC50 (second compound 1 µM)
778 nM: IC50 (second compound 3.16 µM)
864 nM: IC50 (second compound 0.316 µM)
inactive: viability, T/C [1] 98.8% | viability, T/C [2] 102% | viability, T/C [3] 79.2% | viability, T/C [4] 52.5% | viability, T/C [5] 8.11% | viability, T/C [7] 110% | viability, T/C [8] 100% | viability, T/C [9] 69% | viability, T/C [10] 49.2% | viability, T/C [11] 9.57% | viability, T/C [13] 106% | viability, T/C [14] 97.8% | viability, T/C [15] 71.8% | viability, T/C [16] 55.5% | viability, T/C [17] 5.27% | viability, T/C [19] 118% | viability, T/C [20] 110% | viability, T/C [21] 86.5% | viability, T/C [22] 53.7% | viability, T/C [23] 6.46% | viability, T/C [25] 102% | viability, T/C [26] 105% | viability, T/C [27] 79.9% | viability, T/C [28] 41.9% | viability, T/C [31] 99.6% | viability, T/C [32] 102% | viability, T/C [33] 76.2% | viability, T/C [34] 70.4% | viability, T/C [35] 7.3%
active: viability, T/C [6] 1.26% | viability, T/C [12] 1.74% | viability, T/C [18] 0.89% | viability, T/C [24] 0.25% | viability, T/C [29] 9.53% | viability, T/C [30] 0.27% | viability, T/C [36] 0.34%
1410 nM: IC50 (second compound 10 µM)
